Experimental data reported in ChEMBL document CHEMBL3792383, “C-cinnamoyl glycosides as a new class of anti-filarial agents” (Eur J Med Chem, 2016).
In brackets after ≈: the same amount, converted by molar mass. Activity calls are given as the source filed them. The calls are words filed in the database; no cut-off is given here.

What was measured:
Setaria cervi [1] = assay: Antifilarial activity against microfilaria of Setaria cervi assessed as inhibition of relative movability after 24 hrs by microscopy; assay type: functional, organism-based
Setaria cervi [2] = assay: Antifilarial activity against microfilaria of Setaria cervi assessed as inhibition of worm viability after 24 hrs by MTT assay; assay type: functional
[3] = Cytotoxicity against human normal kidney epithelial cells after 24 hrs by MTT assay; assay type: cell-based, Epithelial cell
[4] = Selectivity index, ratio of CC50 for human normal kidney epithelial cells to IC50 for microfilaria of Setaria cervi; assay type: functional, Epithelial cell
Wuchereria bancrofti = assay: Antifilarial activity against microfilaria of Wuchereria bancrofti assessed as reduction in worm viability at 18 nM after 24 hrs by MTT assay; assay type: functional
Setaria cervi [5] = assay: Induction of apoptosis in microfilaria of Setaria cervi assessed as chromatin condensation after 24 hrs by Hoechst 33342 staining-based fluorescence microscopy; assay type: functional, organism-based
Setaria cervi [6] = assay: Induction of apoptosis in microfilaria of Setaria cervi assessed as chromatin condensation after 24 hrs by propidium iodide staining-based inverted fluorescence microscopy; assay type: functional, organism-based
Setaria cervi [7] = assay: Induction of apoptosis in microfilaria of Setaria cervi assessed as DNA fragmentation after 24 hrs by Hoechst 33342 staining-based fluorescence microscopy; assay type: functional, organism-based
Setaria cervi [8] = assay: Induction of apoptosis in microfilaria of Setaria cervi assessed as DNA fragmentation after 24 hrs by propidium iodide staining-based inverted fluorescence microscopy; assay type: functional, organism-based
[9] = Antifilarial activity against microfilaria of Wuchereria bancrofti assessed as inhibition of relative movability after 24 hrs by microscopy; assay type: functional
Setaria cervi [10] = assay: Potency index, ratio of ivermectin LC50 to compound LC50 for microfilaria of Setaria cervi by MTT assay; assay type: functional
Setaria cervi [11] = assay: Induction of cuticular sheath damage in microfilaria of Setaria cervi after 24 hrs by scanning electron microscopy; assay type: functional, organism-based

Molecule	IC50 (Setaria cervi [1]; Setaria cervi, 24 h)	MIC (Setaria cervi [1]; Setaria cervi, 24 h)	LC50 (Setaria cervi [2])	further results
COc1cccc(/C=C/C(=O)C[C@@H]2O[C@H](COC(C)=O)[C@@H](OC(C)=O)[C@H](OC(C)=O)[C@H]2OC(C)=O)c1	> 900 nM	> 0.9 µM	> 900 nM	
COc1cc(/C=C/C(=O)C[C@@H]2O[C@H](COC(C)=O)[C@@H](OC(C)=O)[C@H](OC(C)=O)[C@H]2OC(C)=O)cc(OC)c1OC	76.4 nM	0.0602 µM (≈ 34.1 ng/mL)	140 nM	
CCOc1ccc(/C=C/C(=O)C[C@@H]2O[C@H](COC(C)=O)[C@@H](OC(C)=O)[C@H](OC(C)=O)[C@H]2OC(C)=O)cc1	51.4 nM	0.0279 µM (≈ 14.5 ng/mL)	76.8 nM	
COc1ccc(/C=C/C(=O)C[C@@H]2O[C@H](COC(C)=O)[C@@H](OC(C)=O)[C@H](OC(C)=O)[C@H]2OC(C)=O)cc1OC	81.4 nM	0.0629 µM (≈ 33.7 ng/mL)	274 nM	
CC(=O)OC[C@H]1O[C@@H](CC(=O)/C=C/c2ccc(OC(C)=O)cc2)[C@H](OC(C)=O)[C@@H](OC(C)=O)[C@@H]1OC(C)=O	119 nM	0.0342 µM (≈ 18.3 ng/mL)	336 nM	
CC(=O)OC[C@H]1O[C@@H](CC(=O)/C=C/c2cccs2)[C@H](OC(C)=O)[C@@H](OC(C)=O)[C@@H]1OC(C)=O	46.9 nM	0.0245 µM (≈ 11.8 ng/mL)	257 nM	
CC(=O)OC[C@H]1O[C@@H](CC(=O)/C=C/c2ccc(C)cc2)[C@H](OC(C)=O)[C@@H](OC(C)=O)[C@@H]1OC(C)=O	13.6 nM	0.00581 µM (≈ 2.85 ng/mL)	42.2 nM	CC50 at 24 h [3]: 3.18 nM; Ratio CC50/IC50 [4]: 0.24
CC(=O)OC[C@H]1O[C@@H](CC(=O)/C=C/c2ccccc2)[C@H](OC(C)=O)[C@@H](OC(C)=O)[C@@H]1OC(C)=O	38.8 nM	0.0206 µM (≈ 9.8 ng/mL)	108 nM	
IVERMECTIN [listing 1 of 2 here]			53.6 nM	MIC (Setaria cervi [1]): 0.00743 µM; Activity (Wuchereria bancrofti): 17.6%
IVERMECTIN [listing 2 of 2 here]				IC50 (Setaria cervi [1]): 19.5 nM
COc1ccc(/C=C/C(=O)C[C@@H]2O[C@H](COC(C)=O)[C@@H](OC(C)=O)[C@H](OC(C)=O)[C@H]2OC(C)=O)cc1	41.6 nM	0.0207 µM (≈ 10.5 ng/mL)	142 nM	
COc1cc(/C=C/C(=O)C[C@@H]2O[C@H](COC(C)=O)[C@@H](OC(C)=O)[C@H](OC(C)=O)[C@H]2OC(C)=O)ccc1O	185 nM	0.0722 µM (≈ 37.7 ng/mL)	500 nM	
CC(=O)OC[C@H]1O[C@@H](CC(=O)/C=C/c2ccco2)[C@H](OC(C)=O)[C@@H](OC(C)=O)[C@@H]1OC(C)=O	46.6 nM	0.0153 µM (≈ 7.12 ng/mL)	163 nM	
CC(=O)OC[C@H]1O[C@@H](CC(=O)/C=C/c2cc(Cl)cc(Cl)c2O)[C@H](OC(C)=O)[C@@H](OC(C)=O)[C@@H]1OC(C)=O	17.7 nM	0.00919 µM (≈ 5.16 ng/mL)	44.4 nM	
COc1ccccc1/C=C/C(=O)C[C@@H]1O[C@H](COC(C)=O)[C@@H](OC(C)=O)[C@H](OC(C)=O)[C@H]1OC(C)=O	68.9 nM	0.0351 µM (≈ 17.8 ng/mL)	256 nM	
CC(=O)OC[C@H]1O[C@@H](CC(=O)/C=C/c2cccnc2)[C@H](OC(C)=O)[C@@H](OC(C)=O)[C@@H]1OC(C)=O	7.64 nM	0.00377 µM (≈ 1.8 ng/mL)	26.7 nM	CC50 at 24 h [3]: 4.17 nM; Ratio CC50/IC50 [4]: 0.56
CC(=O)OC[C@H]1O[C@@H](CC(=O)/C=C/c2ccc(O)cc2)[C@H](OC(C)=O)[C@@H](OC(C)=O)[C@@H]1OC(C)=O	> 900 nM	> 0.9 µM	> 900 nM	
CC(=O)OC[C@H]1O[C@@H](CC(=O)/C=C/c2cccc3ccccc23)[C@H](OC(C)=O)[C@@H](OC(C)=O)[C@@H]1OC(C)=O	13.5 nM	0.0117 µM (≈ 6.15 ng/mL)	19.4 nM	
CC(=O)OC[C@H]1O[C@@H](CC(=O)/C=C/c2ccc([N+](=O)[O-])s2)[C@H](OC(C)=O)[C@@H](OC(C)=O)[C@@H]1OC(C)=O	21.3 nM	0.0106 µM (≈ 5.6 ng/mL)	47.5 nM	
COc1ccc(/C=C/C(=O)C[C@@H]2O[C@H](COC(C)=O)[C@@H](OC(C)=O)[C@H](OC(C)=O)[C@H]2OC(C)=O)cc1OCc1ccccc1	250 nM	0.123 µM (≈ 75.2 ng/mL)	> 900 nM	
CC(=O)OC[C@H]1O[C@@H](CC(=O)/C=C/c2ccc(C(F)(F)F)cc2)[C@H](OC(C)=O)[C@@H](OC(C)=O)[C@@H]1OC(C)=O	6.89 nM	0.0034 µM (≈ 1.85 ng/mL)	24.6 nM	CC50 at 24 h [3]: 102 nM; Activity (Setaria cervi [5]): Active; Activity (Setaria cervi [6]): Active; Activity (Setaria cervi [7]): Active; Activity (Setaria cervi [8]): Active; Activity (Wuchereria bancrofti): 40.6%; IC50 [9]: 8.96 nM; MIC [9]: 0.0044 µM (≈ 2.4 ng/mL); inhibition [9]: Dose-dependent effect; RatioLC50 (Setaria cervi [10]): 3.5; Activity (Setaria cervi [11]): Active; Ratio CC50/IC50 [4]: 14.87
CC(=O)OC[C@H]1O[C@@H](CC(=O)/C=C/c2ccc3ccccc3c2)[C@H](OC(C)=O)[C@@H](OC(C)=O)[C@@H]1OC(C)=O	> 900 nM	> 0.9 µM	> 900 nM	
CC(=O)OC[C@H]1O[C@@H](CC(=O)/C=C/c2cc(Cl)cc(Cl)c2)[C@H](OC(C)=O)[C@@H](OC(C)=O)[C@@H]1OC(C)=O	7.52 nM	0.00532 µM (≈ 2.9 ng/mL)	15.8 nM	CC50 at 24 h [3]: 32.9 nM; Activity (Setaria cervi [5]): Active; Activity (Setaria cervi [6]): Active; Activity (Setaria cervi [7]): Active; Activity (Setaria cervi [8]): Active; Activity (Wuchereria bancrofti): 73.1%; IC50 [9]: 9.33 nM; MIC [9]: 0.00476 µM (≈ 2.6 ng/mL); inhibition [9]: Dose-dependent effect; RatioLC50 (Setaria cervi [10]): 5.4; Activity (Setaria cervi [11]): inactive; Ratio CC50/IC50 [4]: 4.94
CC(=O)OC[C@H]1O[C@@H](CC(=O)/C=C/c2ccc([N+](=O)[O-])cc2)[C@H](OC(C)=O)[C@@H](OC(C)=O)[C@@H]1OC(C)=O	23.9 nM	0.0111 µM (≈ 5.8 ng/mL)	71.2 nM	
CC(=O)OC[C@H]1O[C@@H](CC(=O)/C=C/c2cccc([N+](=O)[O-])c2)[C@H](OC(C)=O)[C@@H](OC(C)=O)[C@@H]1OC(C)=O	11.3 nM	0.00594 µM (≈ 3.1 ng/mL)	29 nM	CC50 at 24 h [3]: 15.4 nM; Ratio CC50/IC50 [4]: 1.44
CC(=O)OC[C@H]1O[C@@H](CC(=O)/C=C/c2ccc(Cl)c(Cl)c2)[C@H](OC(C)=O)[C@@H](OC(C)=O)[C@@H]1OC(C)=O	6.97 nM	0.00458 µM (≈ 2.5 ng/mL)	13.2 nM	CC50 at 24 h [3]: 25.8 nM; Activity (Setaria cervi [5]): Active; Activity (Setaria cervi [6]): Active; Activity (Setaria cervi [7]): Active; Activity (Setaria cervi [8]): Active; Activity (Wuchereria bancrofti): 81.09%; IC50 [9]: 6.77 nM; MIC [9]: 0.00458 µM (≈ 2.5 ng/mL); inhibition [9]: Dose-dependent effect; RatioLC50 (Setaria cervi [10]): 6.5; Activity (Setaria cervi [11]): Active; Ratio CC50/IC50 [4]: 3.97
CC(=O)OC[C@H]1O[C@@H](CC(=O)/C=C/c2ccc(OCc3ccccc3)cc2)[C@H](OC(C)=O)[C@@H](OC(C)=O)[C@@H]1OC(C)=O	348 nM	0.263 µM (≈ 153 ng/mL)	> 900 nM	
CC(=O)OC[C@H]1O[C@@H](CC(=O)/C=C/c2ccc(N(C)C)cc2)[C@H](OC(C)=O)[C@@H](OC(C)=O)[C@@H]1OC(C)=O	226 nM	0.113 µM (≈ 58.9 ng/mL)	886 nM	
CC(=O)OC[C@H]1O[C@@H](CC(=O)/C=C/c2ccc(Cl)cc2)[C@H](OC(C)=O)[C@@H](OC(C)=O)[C@@H]1OC(C)=O	26.6 nM	0.0167 µM (≈ 8.54 ng/mL)	51.9 nM	
